In PubChem BioAssay (NCI):
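Tested at 5 concentrations; 48 h exposure; 96-well plates; endpoints linearly interpolated, else capped at highest concentration. At the GI50, growth is halved. TGI: total growth inhibition.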

Key:
Experiment in all cases: NCI tumour cell line growth inhibition, 48 h
[1] = test system: A549 NSCLC
[2] = test system: CCRF-CEM leukemia
[3] = test system: HCC-2998 colon
[4] = test system: HOP-92 NSCLC
[5] = test system: SF-295 CNS
[6] = test system: SF-539 CNS
[7] = test system: SK-OV-3 ovarian
[8] = test system: TK-10 renal
[9] = test system: UACC-62 melanoma
[10] = test system: UO-31 renal

Compound `COc1ccc(-c2nc(C(=O)c3ccccc3)n(CC(=O)c3ccccc3)c2-c2ccc(OC)cc2)cc1` has a GI50 [1] of over 100 µM, a TGI [1] of over 100 µM and a GI50 [2] of over 100 µM. For the same compound, the TGI [2] was over 100 µM, the GI50 [3] was over 100 µM and the TGI [3] was over 100 µM. For the same compound, the GI50 [4] was 12.4 µM, the TGI [4] was over 100 µM and the GI50 [5] was over 100 µM. For the same compound, the TGI [5] was over 100 µM, the GI50 [6] was over 100 µM and the TGI [6] was over 100 µM. For the same compound, the GI50 [7] was over 100 µM, the TGI [7] was over 100 µM and the GI50 [8] was over 100 µM. It also gave a TGI [8] of over 100 µM, a GI50 [9] of over 100 µM and a TGI [9] of over 100 µM. It also gave a GI50 [10] of over 100 µM and a TGI [10] of over 100 µM.

`COc1cc(O)c2c(c1)C(=O)C=C(Cl)C2=O` was tested, and the TGI [1] was over 100 µM, the TGI [2] was over 100 µM and the TGI [3] was over 100 µM. It also gave a TGI [4] of over 100 µM, a TGI [5] of over 100 µM and a TGI [6] of over 100 µM. For the same compound, the TGI [7] was over 100 µM, the TGI [8] was over 100 µM and the TGI [9] was over 100 µM. It also gave a TGI [10] of over 100 µM.

In the case of `O=S(=O)(SCc1ccccc1)C(c1ccccc1)c1ccccc1`, the TGI [1] is reported as over 100 µM, the TGI [2] is reported as over 100 µM and the TGI [3] is reported as over 100 µM. For the same compound, the TGI [4] was 35.5 µM, the TGI [5] was over 100 µM and the TGI [6] was 43.1 µM. It also gave a TGI [7] of over 100 µM, a TGI [8] of over 100 µM and a TGI [9] of 85.7 µM. For the same compound, the TGI [10] was over 100 µM.

`CCN1C2=NCCN2S(=O)(=O)c2ccccc21` showed a TGI [1] of over 100 µM, a TGI [2] of over 100 µM and a TGI [3] of over 100 µM. For the same compound, the TGI [4] was over 100 µM, the TGI [5] was over 100 µM and the TGI [6] was over 100 µM. For the same compound, the TGI [7] was over 100 µM, the TGI [8] was over 100 µM and the TGI [9] was over 100 µM. For the same compound, the TGI [10] was over 100 µM.

`S=C(Nc1ccc(Cl)cc1)Nc1ccc(-c2nc3ccccc3o2)cc1` showed a GI50 [1] of 24.3 µM, a TGI [1] of 92.6 µM and a GI50 [2] of 0.062 µM. For the same compound, the TGI [2] was 19.3 µM, the GI50 [3] was 13.8 µM and the TGI [3] was 26.7 µM. For the same compound, the GI50 [4] was 17.2 µM, the TGI [4] was 50.4 µM and the GI50 [5] was 13.7 µM. The TGI [5] was 42.8 µM, the GI50 [6] was 19.2 µM and the TGI [6] was 41.8 µM. The GI50 [7] was 32.3 µM, the TGI [7] was over 100 µM and the GI50 [8] was 21.2 µM. The TGI [8] was 74.1 µM, the GI50 [9] was 12.7 µM and the TGI [9] was 27.7 µM. It also gave a GI50 [10] of 11.6 µM and a TGI [10] of 26.1 µM.

Work on `Cc1ccc(NC(=O)C(=O)CC(=O)C2CCOC2=O)c(C)c1` (stereo not given) yielded a TGI [1] of over 100 µM, a TGI [2] of over 100 µM and a TGI [3] of over 100 µM. The TGI [4] was over 100 µM, the TGI [5] was over 100 µM and the TGI [6] was over 100 µM. The TGI [7] was over 100 µM, the TGI [8] was over 100 µM and the TGI [9] was over 100 µM. For the same compound, the TGI [10] was over 100 µM.

`COc1ccc(C(=O)C(c2ccc(OC)cc2)C2OC(=O)C(Cl)=C2Cl)cc1` (stereo not given) gave a TGI [1] of over 100 µM, a TGI [2] of over 100 µM and a TGI [3] of over 100 µM. For the same compound, the TGI [4] was over 100 µM, the TGI [5] was over 100 µM and the TGI [6] was over 100 µM. It also gave a TGI [7] of over 100 µM, a TGI [8] of over 100 µM and a TGI [9] of over 100 µM. It also gave a TGI [10] of over 100 µM.

In the case of `O=C(Nc1cccc(Cc2cccc(NC(=O)c3ccccc3)c2)c1)c1ccccc1`, the TGI [1] is reported as over 100 µM, the TGI [2] is reported as over 100 µM and the TGI [3] is reported as over 100 µM. The TGI [4] was 44.3 µM, the TGI [5] was 70.2 µM and the TGI [6] was 39.6 µM. The TGI [7] was 62.5 µM, the TGI [8] was over 100 µM and the TGI [9] was over 100 µM. The TGI [10] was 66.3 µM.

Work on `Fc1ccc(-c2ncn(C3CCNCC3)c2-c2ccnc(Oc3ccc(F)c(F)c3)n2)cc1` yielded a GI50 [1] of 9.39 µM, a TGI [1] of over 19.4 µM and a GI50 [2] of over 14.9 µM. The TGI [2] was 24.2 µM, the GI50 [3] was 3.84 µM and the TGI [3] was 7.77 µM. For the same compound, the GI50 [4] was 3.28 µM, the TGI [4] was 15.6 µM and the GI50 [5] was 7.15 µM. For the same compound, the TGI [5] was over 17.2 µM, the GI50 [6] was 4.94 µM and the TGI [6] was 9.8 µM. It also gave a GI50 [7] of 7.54 µM, a TGI [7] of over 16.4 µM and a GI50 [8] of 5.09 µM. For the same compound, the TGI [8] was 11.1 µM, the GI50 [9] was 4.99 µM and the TGI [9] was 10.3 µM. It also gave a GI50 [10] of 6.25 µM and a TGI [10] of over 25 µM.
